Reference: paper PMC12013366, “In vitro evaluation of the immunogenic potential of gramicidin S and its photocontrolled analogues” (RSC Medicinal Chemistry, 2025)
Where two headings read alike, the source gives them in different places. Non-standard residues stand in square brackets, D forms with d. Residues, ends and D or L forms follow the SMILES beside them. Orn = NCCC[C@H](N)C(=O)O

What was measured:
[1] = Cytotoxicity, two-dimensional (monolayer) assay; format: cell-based; conditions: human, HEK-293 cells, HEK-293 monolayer, necrotic cells by PI/Hoechst 33342 imaging, ± SEM, n=4, read-out: IC50, cytotoxic activity, two-dimensional assay; for IC50 at 10 min: 10 mins incubation; for IC50 at 1 h: 1 h incubation; for IC50 at 24 h: 24 hrs incubation; for IC50 at 72 h: 72 hrs incubation
Method: Screening of the cytotoxic activity of compounds in a two-dimensional (2D) format was designed in accordance with the previously obtained data[32] for the HeLa cell line. The cytotoxic action of peptides was quantified in the 96-well plate format at four time points after adding compounds – at 10 min, 1 h, 24 h and 72 h. […] The selected IC50 values for different incubation times are exemplified in Fig. 2.
Essential experimental details have been previously published by us.[79]
The cells were maintained in a culture till 70–80% confluence was reached and then seeded in a 96-well black-wall transparent-bottom plate (6055302, Revvity) with 200 μL of appropriate medium per well. The seeding density has been previously determined in the optimization experiments for each cell line: 3500 cells per well for 4T1; 20 000 cells per well for HEK-293; 20 000 cells per well for HeLa; 25 000 cells per well for HepG2; 8000 cells per well for LLC; 15 000 cells per well for MDA-MB-231. After 24 h incubation at 37 °C, the medium was removed and 100 μL of fresh medium was added. Two-fold serial dilution of compounds (256–0.5 μM, 11 points for closed forms of photoswitchable peptides; 128–0.25 μM, 11 points for open forms; 64–0.5, 8 points for GS) in the medium was prepared and dispensed in 100 μL per well. The plates were incubated with compounds for 10 min, 1 h, 24 h and 72 h. The staining solution consisting of 25 μM of Hoechst 33342 (62249, Thermo Fisher), 5 μM of propidium iodide (J66764-MC, Thermo Fisher) or ethidium homodimer-1 (E1169, Thermo Fisher), with 10% FBS in DPBS (21600044, Thermo Fisher) was prepared and added to wells in a volume of 50 μL for 20 min. Fluorescence images were acquired using an INCell Analyzer 6500 HS automatic imaging system with 20× objective lens (NA = 0.45) and 16 fields of view (FOV) per well. The numerical data were obtained using INCarta 1.13 and then analysed using GraphPad Prism 10.

[2] = test system: HMGB1 released by HepG2 cells; test: HMGB1 release, bioluminescence immunoassay (Lumit HMGB1) in the supernatant; format: cell-based, human; conditions: 64 μM, n=3
Method: HMGB1 was quantified (using a calibration curve) by a bioluminescence assay in the supernatant.
For this, 25 000 cells per well of HepG2 were seeded in 200 μL of complete DMEM in a 96-well black-wall transparent-bottom plate (655090, Greiner). After 24 h, the medium was aspired, and 100 μL of DPBS was added for rinsing and then aspired. Then, 100 μL of Leibovitz L-15 medium that contained 10% FBS was added. After that, 2× concentrated solutions of tested compounds (64 and 8 μM, triplicates for each time point) were prepared in the same Leibovitz L-15 medium in an intermediate plate and dispensed in a volume of 100 μL to the cell-containing plate. The calibration curve was constructed using a HMGB1 stock solution (1000–0.24 ng mL^−1, 4-fold dilution, 7 points, n = 2) from Lumit HMGB1 (Human/Mouse) immunoassay kit (W6110, Promega) and dispensed in a 96-well white-wall transparent-bottom working plate (353377, Falcon). After 30 min, 3 h and 24 h, aliquots from the intermediate plate (tested compounds) were transferred to the working plate. […] The plate was shaken for 1 min and incubated for 1 h at room temperature. […] The luminescence signal was collected throughout the visible range (360–700 nm). The data were analyzed using GraphPad Prism 10.

[3] = 2D monolayer, Table S1 series (with LMB033)
[4] = monolayer (2D), Table S2 series (with LMB002)

Question: With CC(C)C[C@@H]1NC(=O)[C@H](CCCN)NC(=O)[C@H](C(C)C)NC(=O)[C@@H]2CCCN2C(=O)[C@@H](Cc2ccccc2)NC(=O)[C@H](CC(C)C)NC(=O)[C@H](CCCN)NC(=O)[C@H](C(C)C)NC(=O)[C@@H]2CCCN2C(=O)[C@@H](Cc2ccccc2)NC1=O [Gramicidin S, gramicidin S] (cyclo(V[Orn]L[dF]PV[Orn]L[dF]P)) as the compound, how does the IC50 at 10 min [1, 3] read?
Answer: 12.9 ± 0.4 µM

Question: And the IC50 at 1 h [1, 3]?
Answer: 11.6 ± 0.1 µM

Question: And the IC50 at 24 h [1, 3]?
Answer: 8.3 ± 0.2 µM

Question: And the IC50 at 72 h [1, 3]?
Answer: 8.4 ± 0.7 µM

Question: And the IC50 at 10 min [1, 4]?
Answer: 15.4 ± 0.1 µM

Question: And the IC50 at 1 h [1, 4]?
Answer: 12.7 ± 0.2 µM

Question: And the IC50 at 24 h [1, 4]?
Answer: 10.4 ± 0.1 µM

Question: What about the IC50 at 72 h [1, 4] of the same compound?
Answer: 11.1 ± 0.1 µM

Question: And the “HMGB1 detected in the supernatant” value ([2]; 30 min post-treatment, interpolated from calibration curve)?
Answer: 50 ng/mL

Question: What about the “HMGB1 detected in the supernatant” value ([2]; at 3 h, constant up to 24 h) of the same compound?
Answer: 10 ng/mL
